From patent US12503436B2, “Compounds and compositions for treating conditions associated with STING activity” (NOVARTIS PHARMA AG, priority 2021, dated 2025)

Each molecule was assayed against STING (Homo sapiens, UniProt Q86WV6, G230A/H232R/R293Q/R71H) (assay: STING reporter assay in THP1-Dual KO-IFNAR2 cells (2′3′cGAMP stimulation, luciferase reporter)). Conditions: 15 μM 2′3′cGAMP stimulation, 24 h, read-out: Pharmaron, THP1_IFNAR2 STING 24 h Luci Normalized: GeoMean EC50.
Format: cell-based
How it was run: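 EC50 from secreted luciferase (QUANTI-Luc Plus luminescence of supernatant) after 24 h at 37 °C, 5% CO2. Cells: THP1-Dual KO-IFNAR2, treated with compound (0.0017-100 μM final) plus lipofected 2′3′cGAMP at 15 μM final.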

STING, sequence (Q86WV6 whole entry R71H/G230A/H232R/R293Q): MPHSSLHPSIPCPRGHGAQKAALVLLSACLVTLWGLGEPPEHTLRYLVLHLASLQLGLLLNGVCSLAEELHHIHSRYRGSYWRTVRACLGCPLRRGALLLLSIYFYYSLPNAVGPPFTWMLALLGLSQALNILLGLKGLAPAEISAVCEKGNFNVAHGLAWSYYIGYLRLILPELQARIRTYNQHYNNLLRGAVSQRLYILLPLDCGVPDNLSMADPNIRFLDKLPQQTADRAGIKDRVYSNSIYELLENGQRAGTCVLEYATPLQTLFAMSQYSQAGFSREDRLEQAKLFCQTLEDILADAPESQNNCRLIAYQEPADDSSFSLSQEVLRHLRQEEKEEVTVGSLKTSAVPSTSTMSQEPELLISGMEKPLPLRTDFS

Molecule	EC50 [nM]
CC(=O)Nc1c[nH]c2ccc(OCC3CCN(CC(F)(F)F)CC3)cc12 [Compound 119, N-(5-((1-(2,2,2-trifluoroethy|)piperidin-4-yl)methoxy)-1H-indol-3-yl)acetamide]	5000 to 100000
CC(=O)Nc1c[nH]c2ccc(CCOC(C)(C)C3CCN(CC(F)(F)F)C3)cc12 (stereo not drawn) [Compound 499, N-(5-(2-((2-(1-(2,2,2-trifluoroethyl)pyrrolidin-3-yl)propan-2-yl)oxy)ethyl)-1H-indol-3-yl)acetamide]	5000 to 100000
CC(=O)Nc1c[nH]c2ccc(CCOc3ccc4ccncc4c3)cc12 [Compound 449, N-{5-[2-(isoquinolin-7-yloxy)ethyl]-1H-indol-3-yl}acetamide]	1000 to 5000
CC(=O)Nc1c[nH]c2ccc(CCC(C)(C)C3CCN(CC(F)(F)F)CC3)cc12 [Compound 275, N-(5-(3-methyl-3-(1-(2,2,2-trifluoroethyl)piperidin-4-yl)butyl)-1H-indol-3-yl)acetamide]	1000 to 5000
CC(=O)Nc1c[nH]c2c(F)cc(COCc3ccc(C(F)(F)F)cc3)cc12 [Compound 276, N-(7-fluoro-5-(((4-(trifluoromethyl)benzyl)oxy)methyl)-1H-indol-3-yl)acetamide]	1000 to 5000
O=C(Nc1c[nH]c2ccc(O[C@H]3C[C@@H](c4ccc(C(F)(F)F)cc4)C3)cc12)C1CNC1 [Compound 537, N-(5-(cis-3-(4-(trifluoromethyl)phenyl)cyclobutoxy)-1H-indol-3-yl)azetidine-3-carboxamide]	5000 to 100000
CC1(C(=O)Nc2c[nH]c3ccc(OC4CC(c5ccc(C(F)(F)F)nc5)C4)cc23)CC1 (stereo not drawn) [Compound 376, 1-methyl-N-(5-(3-(6-(trifluoromethyl)pyridin-3-yl)cyclobutoxy)-1H-indol-3-yl)cyclopropane-1-carboxamide]	200 to 1000
CC(=O)Nc1c[nH]c2ccc(CCOc3cccnc3)cc12 [Compound 581, N-(5-(2-(pyridin-3-yloxy)ethyl)-1H-indol-3-yl)acetamide]	5000 to 100000
CC(=O)Nc1c[nH]c2ccc(CCOc3ccnc(C4CC4)c3)cc12 [Compound 463]	5000 to 100000
CC(=O)Nc1c[nH]c2ccc(OCCc3cnn4c3CCCC4)cc12 [Compound 349, N-(5-(2-(4,5,6,7-tetrahydropyrazolo[1,5-a]pyridin-3-yl)ethoxy)-1H-indol-3-yl)acetamide]	5000 to 100000
CC(=O)Nc1c[nH]c2ccc(CCOc3cccc(CC#N)c3)cc12 [Compound 453, N-(5-{2-[3-(cyanomethyl)phenoxy]ethyl}-1H-indol-3-yl)acetamide]	1000 to 5000
CC(=O)Nc1c[nH]c2cc(F)c(CCOc3ccc(C(F)(F)F)cc3)c(F)c12 [Compound 375, N-(4,6-difluoro-5-(2-(4-(trifluoromethyl)phenoxy)ethyl)-1H-indol-3-yl)acetamide]	1000 to 5000
CNC(Cc1ccc(C(F)(F)F)cc1)Cc1ccc2[nH]cc(NC(C)=O)c2c1 (stereo not drawn) [Compound 506, N-(5-(2-(methylamino)-3-(4-(trifluoromethyl)phenyl)propyl)-1H-indol-3-yl)acetamide]	5000 to 100000
CC(=O)Nc1c[nH]c2ccc(OCC[C@H]3CC[C@](O)(C(F)(F)F)CC3)cc12 [Compound 501, N-(5-(2-(cis-4-hydroxy-4-(trifluoromethyl)cyclohexyl)ethoxy)-1H-indol-3-yl)acetamide]	1000 to 5000

Second part, the molecule after the results:

EC50 [nM]	Molecule
200 to 1000	CC(C)(C)C(=O)Nc1c[nH]c2ccc(OCC[C@@H]3C[C@@H]4CN(CC(F)(F)F)C[C@@H]4C3)cc12 [Compound 367, N-(5-(2-((3aR,5r,6aS)-2-(2,2,2-trifluoroethyl)octahydrocyclopenta[c]pyrrol-5-yl)ethoxy)-1H-indol-3-yl)pivalamide]
200 to 1000	3-chloro-N-(5-(2-((3aR,5r,6aS)-2-(2,2,2-trifluoroethyl)octahydrocyclopenta[c]pyrrol-5-yl)ethoxy)-1H-indol-3-yl)cyclobutane-1-carboxamide [Compound 342]
40 to 200	CC1(C(=O)Nc2c[nH]c3ccc(OCCc4ccc(C(F)(F)F)cc4)cc23)CCC1 [Compound 235, 1-methyl-N-(5-(4-(trifluoromethyl)phenethoxy)-1H-indol-3-yl)cyclobutane-1-carboxamide]
200 to 1000	N#CC1(C(=O)Nc2c[nH]c3ccc(OCCc4ccc(C(F)(F)F)cc4)cc23)CC1 [Compound 193, 1-cyano-N-(5-(4-(trifluoromethyl)phenethoxy)-1H-indol-3-yl)cyclopropane-1-carboxamide]
200 to 1000	CC1(C(=O)Nc2c[nH]c3ccc(CC(O)Cc4ccc(C(F)(F)F)cc4)cc23)CC1 (stereo not drawn) [Compound 174, N-(5-(2-hydroxy-3-(4-(trifluoromethyl)phenyl)propyl)-1H-indol-3-yl)-1-methylcyclopropane-1-carboxamide]
200 to 1000	O=C(Nc1c[nH]c2ccc(CCCn3cc(C(F)(F)F)cn3)cc12)C1CC1 [Compound 384, N-(5-(3-(4-(trifluoromethyl)-1H-pyrazol-1-yl)propyl)-1H-indol-3-yl)cyclopropanecarboxamide]
40 to 200	COCCCC(=O)Nc1c[nH]c2ccc(OCC[C@@H]3C[C@@H]4CN(CC(F)(F)F)C[C@@H]4C3)cc12 [Compound 520, 4-methoxy-N-(5-(2-((3aR,5r,6aS)-2-(2,2,2-trifluoroethyl)octahydrocyclopenta[c]pyrrol-5-yl)ethoxy)-1H-indol-3-yl)butanamide]
200 to 1000	CCC(=O)Nc1c[nH]c2ccc(COc3ccc(C)cc3)cc12 [Compound 291, N-(5-((p-tolyloxy)methyl)-1H-indol-3-yl)propionamide]
200 to 1000	COC(CCc1ccc2[nH]cc(NC(=O)C3CCC3)c2c1)c1ccc(C(F)(F)F)cc1 (stereo not drawn) [Compound 133, N-(5-(3-methoxy-3-(4-(trifluoromethyl)phenyl)propyl)-1H-indol-3-yl)cyclobutanecarboxamide]
200 to 1000	CC1(C)CC(C(=O)Nc2c[nH]c3ccc(OCc4ccc(C(F)(F)F)cc4)cc23)C1 [Compound 327, 3,3-dimethyl-N-(5-((4-(trifluoromethyl)benzyl)oxy)-1H-indol-3-yl)cyclobutane-1-carboxamide]
40 to 200	COCC(=O)Nc1c[nH]c2ccc(COc3ccc(C(F)(F)F)cc3)cc12 [Compound 273, 2-methoxy-N-(5-((4-(trifluoromethyl)phenoxy)methyl)-1H-indol-3-yl)acetamide]
200 to 1000	CC(C)(C)CC(=O)Nc1c[nH]c2ccc(CCOc3ccc(C(F)(F)F)cc3)cc12 [Compound 591, 3,3-dimethyl-N-(5-(2-(4-(trifluoromethyl)phenoxy)ethyl)-1H-indol-3-yl)butanamide]
200 to 1000	N#CC1CCC1C(=O)Nc1c[nH]c2ccc(CCOc3ccc(C(F)(F)F)cc3)cc12 (stereo not drawn) [Compound 390, 2-cyano-N-(5-(2-(4-(trifluoromethyl)phenoxy)ethyl)-1H-indol-3-yl)cyclobutane-1-carboxamide]
200 to 1000	O=C(Nc1c[nH]c2ccc(CC(O)Cc3ccc(C(F)(F)F)cc3)cc12)C1CC1 (single isomer, unassigned) [Compound 201, N-(5-(2-hydroxy-3-(4-(trifluoromethyl)phenyl)propyl)-1H-indol-3-yl)cyclopropanecarboxamide]
200 to 1000	CCC(=O)Nc1c[nH]c2ccc(CCOc3ccc(C)cc3)cc12 [Compound 168, N-(5-(2-(p-tolyloxy)ethyl)-1H-indol-3-yl)propionamide]
200 to 1000	O=C(Nc1c[nH]c2ccc(OCCc3ccc(C(F)(F)F)cc3)cc12)C1CN(CCC(F)(F)F)C1 [Compound 299, N-(5-(4-(trifluoromethyl)phenethoxy)-1H-indol-3-yl)-1-(3,3,3-trifluoropropyl)azetidine-3-carboxamide]
200 to 1000	O=C(Nc1c[nH]c2ccc(OCCc3ccc(C(F)(F)F)cc3)cc12)C1(F)CC1 [Compound 218, 1-fluoro-N-(5-(4-(trifluoromethyl)phenethoxy)-1H-indol-3-yl)cyclopropane-1-carboxamide]
200 to 1000	CC1(C)CC(C(=O)Nc2c[nH]c3ccc(CCOc4ccc(C(F)(F)F)cc4)cc23)C1 [Compound 348, 3,3-dimethyl-N-(5-(2-(4-(trifluoromethyl)phenoxy)ethyl)-1H-indol-3-yl)cyclobutane-1-carboxamide]
40 to 200	CC(=O)Nc1c[nH]c2ccc(CCOc3ccc(C4CCC(F)(F)CC4)cc3)cc12 [Compound 224, N-(5-(2-(4-(4,4-difluorocyclohexyl)phenoxy)ethyl)-1H-indol-3-yl)acetamide]
